In paper PMC7555312, “Functional Characterization of Temporin-SHe, a New Broad-Spectrum Antibacterial and Leishmanicidal Temporin-SH Paralog from the Sahara Frog (Pelophylax saharicus)” (International Journal of Molecular Sciences, 2020):
Where no end group is shown, it is not given here.

Tests used:
S. aureus ATCC 25923 [1] = experiment: Membrane depolarization assay, DiSC3(5); type: cell-based, Staphylococcus aureus; conditions: peptide at 2-fold MIC; 10^7 cfu/mL in PBS, 1 µM DiSC3(5), 37 °C, 20 min recording; representative of three assays
Description: The depolarization of S. aureus ATCC 25923 cytoplasmic membrane induced by temporin-SHe and temporin-SHd was investigated using the membrane potential-sensitive cyanine dye DiSC3(5) (3,3′-dipropylthiadicarbocyanine iodide), as detailed in [29]. An amount of 700 µL of bacteria resuspended in PBS (10^7 cfu/mL) containing 1 μM DiSC3(5) were preincubated in the dark during 10 min at 37 °C, and then 100 µL of 1 mM KCl were added to the mixture. Fluorescence (λex = 622 nm; λem = 670 nm) was recorded during 20 min at 37 °C (Varian Cary Eclipse fluorescence spectrophotometer) after addition of the peptide (200 µL, final concentration: 2-fold above the MIC). Three independent experiments were performed and the results correspond to a representative experiment with negative (PBS) and positive (melittin) controls.

E. coli ML-35p [2] = type: cell-based, Escherichia coli; conditions: liquid growth inhibition (CLSI), 10^6 CFU/mL in MH broth, 37 °C, 18–20 h, OD 630 nm; mean of three independent experiments in triplicate
Description: (§4) Antimicrobial activity was assessed with a liquid growth inhibition assay performed according to a previously described protocol [14] using the Clinical and Laboratory Standards Institute (CLSI) guidelines. Briefly, in 96-well microtitration plates, mid-log-phase bacteria diluted to 10^6 CFU/mL in Mueller–Hinton (MH) broth were added to different concentrations of synthetic temporin-SHe (1–200 µM, final concentrations) and incubated at 37 °C for 18–20 h, under shaking (150 rpm). For E. faecalis, L. ivanovii and yeasts/fungi, 10^6 CFU/mL suspensions were prepared in LB broth, brain heart infusion (BHI) medium and Yeast Peptone Dextrose (YPD) medium, respectively, and incubation was performed at 30 °C for yeasts/fungi. […] MIC values represent the average of three independent experiments, each performed in triplicate with negative (no peptide) and positive (formaldehyde 0.7%) controls.

P. aeruginosa ATCC 27853 = type: cell-based, Pseudomonas aeruginosa
Description: as §4

S. aureus ST1065 = experiment: Time-killing assay; type: cell-based, Staphylococcus aureus; conditions: two-fold MIC (6.25 µM temporin-SHe), 10^6 cfu/mL in PBS, plate counting
Description: (§1) Aliquots were withdrawn at different times and spread onto LB agar plates for cell counting after overnight incubation at 37 °C. Controls corresponding to the bacterial suspensions without peptide were also run. Two independent experiments were performed in triplicate. Results were expressed as the mean ± S.D. of a representative experiment.

[3] = test system: C. parapsilosis ATCC 22019; type: cell-based, Candida parapsilosis
Description: as §4

E. coli ATCC 25922 = experiment: Time-killing assay; type: cell-based, Escherichia coli; conditions: two-fold MIC (50 µM temporin-SHe), 10^6 cfu/mL in PBS, plate counting
Description: as §1

K. pneumoniae ATCC 13883 = type: cell-based, Klebsiella pneumoniae
Description: as §4

S. aureus ATCC 25923 [4] = type: cell-based, Staphylococcus aureus
Description: as §4

A. baumannii ATCC 19606 = type: cell-based, Acinetobacter baumannii
Description: as §4

E. coli ML-35p [5] = experiment: Membrane permeabilization assay (ONPG hydrolysis); type: cell-based, Escherichia coli; conditions: increasing peptide concentrations, 2.5 mM ONPG in PBS, 37 °C
Description: The ability of temporin-SHe to permeabilize bacterial cytoplasmic membrane was determined using the Gram-negative strain E. coli ML-35p and the Gram-positive strain S. aureus ST1065, as described. Briefly, after incubation of bacteria (37 °C) in 96-well plates with PBS containing 2.5 mM o-nitrophenyl-β-D-galactopyranoside (ONPG) and different concentrations of temporin-SHe, the production of o-nitrophenol (ONP) resulting from hydrolysis of ONPG by intracytoplasmic β-galactosidase was monitored at 405 nm according to the time (Fluostar Galaxy plate reader, BMG Labtech, Champigny-sur-Marne, France). Wells containing bacteria and ONPG, with no peptide, were used as negative control. Two independent experiments were performed in triplicate. Results are from a representative experiment and were expressed as the mean ± S.D.

[6] = test system: all tested Gram-positive bacteria; conditions: range over all tested Gram-positive bacteria
Description: (§2) Antibacterial activity of temporin-SHe was evaluated against Gram-positive bacteria including S. aureus strains (ATCC 25923, ST1065), antibiotic-resistant S. aureus strains (ATCC 43300, ATCC BAA-44), E. faecalis (ATCC 29212), B. megaterium, and L. ivanovii (Li4pVS2), and Gram-negative bacteria including E. coli strains (ATCC 25922, ATCC 35218, ML-35p), S. enterica (serotype Enteritidis), P. aeruginosa (ATCC 27853), A. baumannii (ATCC 19606) and K. pneumoniae (ATCC 13883). Antifungal activity was evaluated against C. albicans (ATCC 90028), C. parapsilosis (ATCC 22019) and S. cerevisiae. ATCC strains were purchased from American-Type Culture Collection (ATCC, Virginia, VA, USA). Antiparasitic activity was determined against promastigotes of several species of Leishmania responsible for visceral, cutaneous and mucocutaneous leishmaniases: L. infantum (strain MHOM/MA/67/ITMAP-263), L. major (strain MHOM/SU/73/5-ASKH), and L. braziliensis (strain MHOM/BR/75/M2904), respectively. Cytotoxicity was assessed against human red blood cells and THP-1 monocytes. Peripheral blood was obtained from healthy adult donors (Établissement Français du Sang, Paris, France). All donors signed informed consent allowing the use of their blood for research purposes.
(§3) Antimicrobial activity was assessed with a liquid growth inhibition assay performed according to a previously described protocol using the Clinical and Laboratory Standards Institute (CLSI) guidelines. Briefly, in 96-well microtitration plates, mid-log-phase bacteria diluted to 10^6 CFU/mL in Mueller–Hinton (MH) broth were added to different concentrations of synthetic temporin-SHe (1–200 µM, final concentrations) and incubated at 37 °C for 18–20 h, under shaking (150 rpm). For E. faecalis, L. ivanovii and yeasts/fungi, 10^6 CFU/mL suspensions were prepared in LB broth, brain heart infusion (BHI) medium and Yeast Peptone Dextrose (YPD) medium, respectively, and incubation was performed at 30 °C for yeasts/fungi. […] MIC values represent the average of three independent experiments, each performed in triplicate with negative (no peptide) and positive (formaldehyde 0.7%) controls.

S. aureus ATCC BAA-44 = test system: S. aureus ATCC BAA-44
Description: as §2, §3

L. ivanovii (Li4pVS2) = conditions: liquid growth inhibition (CLSI), 10^6 CFU/mL in brain heart infusion (BHI) medium, 37 °C, 18–20 h, OD 630 nm; mean of three independent experiments in triplicate
Description: as §2, §3

[7] = test system: S. enterica (serotype Enteritidis)
Description: as §2, §3

FLPALAGIAGLLGKIF-NH2 [Temporin-SHe]
membrane depolarization (DiSC3(5) fluorescence increase) (S. aureus ATCC 25923 [1]): instantaneous | MIC (E. coli ML-35p [2]): 50 µM | MIC (P. aeruginosa ATCC 27853): 60 µM | time to complete killing (S. aureus ST1065): ≤ 5 min | MIC [3]: 50 µM | time to total killing (E. coli ATCC 25922): 90 min | MIC (K. pneumoniae ATCC 13883): 100 µM | MIC (S. aureus ATCC 25923 [4]): 3.12 µM | MIC (A. baumannii ATCC 19606): 25 µM | cytoplasmic membrane permeabilization (ONP production, A405) (E. coli ML-35p [5]): time- and concentration-dependent manner | MIC range [6]: 1.56 to 12.5 µM | MIC (S. aureus ATCC BAA-44): 3.12 µM | MIC (L. ivanovii (Li4pVS2)): 5 µM | MIC [7]: 100 µM
